Patent publication US10334854B2, “Herbicide combinations comprising glufosinate and indaziflam” (BAYER CROPSCIENCE AKTIENGESELLSCHAFT, priority 2016, dated 2019)

Tests used:
Amaranthus retroflexus = assay: Greenhouse pot trial, post-emergence herbicidal activity; assay type: in vivo; details: single post-emergence treatment, 12 g/ha of indaziflam, BBCH growth stage 11-12
Description: (§1) In separate pots, biological trials were conducted in the greenhouse under identical conditions (apart from the treatment with the different products P1 and P2 mentioned above). Each pot contained the same soil and the same amount of seeds of each of the following weeds (two monocotyledonous and two dicotyledonous harmful plant species (weed species)):
(§2) Tables 1 to 4 reflect the respective observed herbicidal activity ratings after treatment of the monocotyledonous harmful plant species (BBCH growth stage 11) and dicotyledonous harmful plant species (BBCH growth stage 10) for the different products applied once in post-emergence.
(§3) The observation period in each case was 40 days after start of treatment with the respective products P1 and P2 mentioned above, both in amounts of 3 L/ha and 5 L/ha, respectively.
(§4) Tables 5 to 8 reflect the respective observed herbicidal activity ratings after treatment of the monocotyledonous harmful plant species (BBCH growth stage 12-13) and dicotyledonous harmful plant species (BBCH growth stage 12) for the different products applied once in post-emergence. The observation period in each case was 40 days after start of treatment with the respective products P1 and P2 mentioned above, both in amounts of 3 L/ha and 5 L/ha, respectively.
(§5) Table 9 reflects the post-emergence efficacy of indaziflam [the ratio by weight of the (1*R)-1-fluoroethyl diastereoisomer of indaziflam to the ratio by weight of the (1*S)-1-fluoroethyl diastereoisomer of indaziflam was about 95:5] on the above mentioned weeds (two monocotyledonous and two dicotyledonous harmful plant species (weed species)) AMARE, STEME, LOLMU and POOAN, each at BBCH growth stage 11-12. Indaziflam was used in an amount of 12 g/ha.

Poa annua = assay: as above; assay type: in vivo; details: single post-emergence treatment, 12 g/ha of indaziflam, BBCH growth stage 11-12
Description: as §1, §2, §3, §4, §5

Lolium multiflorum = assay: as above; assay type: in vivo; details: single post-emergence treatment, 12 g/ha of indaziflam, BBCH growth stage 11-12
Description: as §1, §2, §3, §4, §5

Stellaria media = assay: as above; assay type: in vivo; details: single post-emergence treatment, 12 g/ha of indaziflam, BBCH growth stage 11-12
Description: as §1, §2, §3, §4, §5

[1] = tested on: monocotyledonous and dicotyledonous harmful plant species; details: stated as known; cited from earlier work

SMILES: Cc1ccc2c(c1)[C@H](Nc1nc(N)nc([C@@H](C)F)n1)[C@@H](C)C2 (mixture of isomers) [indaziflam, N^2-[(1R,2S)-2,3-dihydro-2,6-dimethyl-1H-inden-1-yl]-6-[(1RS)-1-fluoroethyl]-1,3,5-triazine-2,4-diamine]
- Regrowth (ratings of herbicidal activity) (Amaranthus retroflexus): very weak herbicidal effect starting on day 7 after treatment
- Regrowth (ratings of herbicidal activity) (Poa annua): no herbicidal effect
- Regrowth (ratings of herbicidal activity) (Lolium multiflorum): no herbicidal effect
- Regrowth (ratings of herbicidal activity) (Stellaria media): no herbicidal effect
- post-emergence efficacy [1]: insufficient
